Results as given in paper PMC8449414, “Rational design of ASCT2 inhibitors using an integrated experimental-computational approach” (Proceedings of the National Academy of Sciences of the …, 2021).
Entries after “also recorded” stand apart in the source; their conditions may differ.

Tests used:
Assay in all cases: Electrophysiology: SLC1 specificity, anion current in transfected HEK293 cells
Assay type in all cases: cell-based
rEAAT2 = biological target: T1, rEAAT2 (Rattus norvegicus, UniProt P31596); details: 0 mV, 10 mM glutamate and 130 mM NaSCN internal, No current = no outward current up to highest concentration tested (§ 20-50, || 100-400, # 1500-2500 µM); for Ki: read-out: Binding affinity Ki
T1 construct: expressed in transfected cells; host or cells: HEK293 (ATCC CRL-11268), transient transfection
T1 sequence (P31596 whole entry): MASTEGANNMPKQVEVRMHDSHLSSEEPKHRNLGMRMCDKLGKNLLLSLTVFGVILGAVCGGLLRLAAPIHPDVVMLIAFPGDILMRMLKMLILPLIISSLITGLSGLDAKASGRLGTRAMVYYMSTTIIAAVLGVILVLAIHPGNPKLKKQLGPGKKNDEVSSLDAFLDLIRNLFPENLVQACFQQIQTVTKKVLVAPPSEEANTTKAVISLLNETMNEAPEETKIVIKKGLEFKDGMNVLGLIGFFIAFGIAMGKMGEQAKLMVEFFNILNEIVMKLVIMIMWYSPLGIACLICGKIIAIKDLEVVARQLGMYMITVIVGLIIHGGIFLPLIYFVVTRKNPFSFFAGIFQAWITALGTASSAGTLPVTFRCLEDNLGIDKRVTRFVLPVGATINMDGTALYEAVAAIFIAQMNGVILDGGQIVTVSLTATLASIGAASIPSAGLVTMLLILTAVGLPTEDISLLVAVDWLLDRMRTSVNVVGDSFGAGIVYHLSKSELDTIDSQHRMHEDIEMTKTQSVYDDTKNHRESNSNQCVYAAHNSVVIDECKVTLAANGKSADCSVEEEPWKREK
Description: (§1) We also tested the specificity of Lc-BPE for ASCT2 over other SLC1 family members (ASCT1, EAAT1-3, and EAAT5).
(§2) Fig. S3. SLC-1 specificity of Lc-BPE. (A) Electrophysiological current responses to the application of 100 µM glutamate (red trace) or varying concentrations of Lc-BPE (black, blue and red traces) to rEAAT1-expressing cells HEK293 cells. (B-C) Dose response curves obtained from currents recorded a fter application of Lc-BPE extracellularly to cells transiently expressing hASCT2, rASCT2, hASCT1 (panel B) and rEAAT1, rEAAT2, rEAAT3 and hEAAT5 (panel C) respectively. For hASCT2, rASCT2 and hASCT1, intracellular pipette solution contained 10 mM alanine and 130 mM NaSCN. For rEAAT1, rEAAT2, rEAAT3 and hEAAT5, intracellular solution contained 10 mM glutamate and 130 mM NaSCN. Extracellular solution was the same for all the experiments (140 mM NaCl). The voltage was 0 mV. […]
(§3) Cell culture and transfection
(§4) Human embryonic kidney 293 (HEK293, ATCC CRL -11268) cells were cultured in DMEM media supplemented with 10% (v/v) fetal bovine serum (FBS), 2 mM glutamine, 1% penicillin streptomycin solution, 1 mM sodium pyruvate and non -essential amino acids. Cells were maintained at 370C in a fully humidified atmosphere containing 5% CO2. rASCT2, hASCT2, hASCT1, EAAT1, EAAT2, EAAT3, EAAT5 and YFP complementary DNAs were each used to transiently transfect HEK293 using POLYPLUS Jet-prime transfection reagent. Cells were analyzed using electrophysiological techniques 24-40 hours after transfection.
(§5) Electrophysiological techniques
(§6) Electrophysiological experiments were performed as described previously 1,2. Stock solutions of inhibitor was prepared in dimethyl sulfoxide (DMSO) up to 100 mM.
(§7) Dilutions to working concentrations were made using external buffer. The highest […]
(§8) cells. For rASCT2, hASCT2 and hASCT1, external buffer contained 140 mM NaCl, 2 mM MgCl2, 2 mM CaCl2, and 10 mM HEPES, pH 7.40 while internal pipette solution comprised of 130 mM NaSCN, 2 mM MgCl2, 10 mM EGTA, 10 mM HEPES and 10mM alanine, pH 7.40. For specificity experiments with EAAT1, EAAT2, EAAC1 and EAAT5, internal solution contained 10 mM glutamate instead of alanine. Compounds were applied to HEK293 cells expressing DNA of interest suspended from a current recording electrode in whole cell configuration44 through a rapid solution exchange device described previously45. Cells are immersed in external buffer bath used to dissolve the inhibitors. The open pipette resistance was between 3 and 6 MΩ. Series resistance was not compensated in these experiments due to relatively small currents. Current s traces were recorded using an Adams and List EPC7 amplifier and digitized using a Molecular Devices Digidata A/D converter.
(§9) Data analysis was performed as described previously 46. Linear and nonlinear curve fitting of the experimental data were analyzed using MicroCal Origin software. Linear plots were fitted using the general equation (y = a + bx) obtaining adjusted R 2 and Pearson’s r values. Nonlinear dose–response relationships were fitted with a Michaelis – Menten-like equation to obtain apparent Ki values in the absence of substrate. For competition studies, equation I = I1 + I2 [Inh]/(Ki + [Inh]) was used for fitting, where I1 is the alanine induced current without the inhibitor, and I2 is the maximum current in the presence of saturating inhibitor concentration, [Inh]max 1,2. At least five experiments were performed for each compound. Unless stated otherwise, the error bars in all our graphs represent mean ± SD .
(§10) ASCT2 expression and purification
(§11) Human ASCT2 (hASCT2) was produced in Pichia pastoris X-33 strain (Invitrogen) in fermentor26 and purified using DDM and CHS (Anatrace) and 1 mM L-glutamine (Merck) to maintain protein stability 27. Membranes representing ~1.5 g cells were solubilized in buffer A (25 mM Tris-HCl, pH 7.4, 300 mM NaCl, 10% (vol/vol) glycerol, 1 mM L - glutamine, 1% DDM and 0.1% CHS) for 1 h at 4 °C; ultracentrifuged (30 min, 442,907 × […]

hEAAT5 = biological target: T2, hEAAT5 (Homo sapiens, UniProt O00341); details: for Binding affinity Ki / Ki: HEK293 cells, 0 mV, 10 mM glutamate and 130 mM NaSCN internal, No current = no outward current up to highest concentration tested (§ 20-50, || 100-400, # 1500-2500 µM); for Ki: read-out: Binding affinity Ki
T2 construct: expressed in transfected cells; host or cells: HEK293 (ATCC CRL-11268), transient transfection
T2 sequence (O00341 whole entry): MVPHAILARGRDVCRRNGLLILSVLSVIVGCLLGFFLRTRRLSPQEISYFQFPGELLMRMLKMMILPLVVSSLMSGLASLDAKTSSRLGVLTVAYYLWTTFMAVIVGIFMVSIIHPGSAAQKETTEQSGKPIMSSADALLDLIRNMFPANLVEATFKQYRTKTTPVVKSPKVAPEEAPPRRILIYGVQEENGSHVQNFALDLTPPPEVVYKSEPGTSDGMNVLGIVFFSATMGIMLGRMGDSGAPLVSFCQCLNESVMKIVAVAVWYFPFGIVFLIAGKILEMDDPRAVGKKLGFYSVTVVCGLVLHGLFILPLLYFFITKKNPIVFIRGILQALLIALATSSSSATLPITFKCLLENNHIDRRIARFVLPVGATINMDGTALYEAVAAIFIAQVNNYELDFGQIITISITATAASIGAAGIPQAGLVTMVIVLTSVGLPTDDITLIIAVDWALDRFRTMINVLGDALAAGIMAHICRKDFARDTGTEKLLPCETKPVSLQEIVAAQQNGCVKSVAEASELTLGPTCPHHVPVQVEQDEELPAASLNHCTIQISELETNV
Description: as §1, §2, §3, §4, §5, §6, §7, §8, §9, §10, §11

rEAAT3 = biological target: T3, rEAAT3 (Rattus norvegicus, UniProt P51907); details: 0 mV, 10 mM glutamate and 130 mM NaSCN internal, No current = no outward current up to highest concentration tested (§ 20-50, || 100-400, # 1500-2500 µM); for Ki: read-out: Binding affinity Ki
T3 construct: expressed in transfected cells; host or cells: HEK293 (ATCC CRL-11268), transient transfection
T3 sequence (P51907 1-523): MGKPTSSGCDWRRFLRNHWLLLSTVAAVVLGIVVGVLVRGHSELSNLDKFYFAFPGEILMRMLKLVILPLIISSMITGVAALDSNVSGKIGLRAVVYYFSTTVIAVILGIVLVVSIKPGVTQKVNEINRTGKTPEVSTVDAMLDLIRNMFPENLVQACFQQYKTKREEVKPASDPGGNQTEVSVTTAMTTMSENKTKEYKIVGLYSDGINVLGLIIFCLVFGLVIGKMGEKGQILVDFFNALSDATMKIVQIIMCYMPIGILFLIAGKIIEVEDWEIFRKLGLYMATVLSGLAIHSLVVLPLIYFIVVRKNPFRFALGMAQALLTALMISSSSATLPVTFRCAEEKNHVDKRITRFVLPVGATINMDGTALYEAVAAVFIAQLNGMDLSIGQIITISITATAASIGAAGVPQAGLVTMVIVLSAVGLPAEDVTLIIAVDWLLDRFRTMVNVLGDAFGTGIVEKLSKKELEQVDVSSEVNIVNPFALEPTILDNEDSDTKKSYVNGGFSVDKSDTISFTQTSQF
Description: as §1, §2, §3, §4, §5, §6, §7, §8, §9, §10, §11

| Binding affinity Ki (rEAAT2) | Binding affinity Ki (hEAAT5) | Binding affinity Ki (rEAAT3) | Ki (rEAAT2) | Ki (hEAAT5) | Ki (rEAAT3) | SMILES | Ki for hEAAT5 higher than for rASCT2 (hEAAT5; hEAAT5 versus rASCT2) |
| --- | --- | --- | --- | --- | --- | --- | --- |
| – | – | – | 970 ± 100 nM | 1050 ± 150 nM | 1250 ± 240 nM | O=C(O[C@@H]1CN[C@H](C(=O)O)C1)c1ccc(-c2ccc(C(F)(F)F)cc2)cc1 [ERA-5] | – |
| – | – | – | 1300 ± 130 nM | 2500 ± 930 nM | 1990 ± 360 nM | Cc1ccccc1-c1ccc(C(=O)O[C@@H]2CN[C@H](C(=O)O)C2)cc1 [ERA-6] | – |
| No current | No current | No current | – | – | – | O=C(Nc1ccc(C(=O)O[C@@H]2CN[C@H](C(=O)O)C2)cc1)c1ccc(C(F)(F)F)cc1 [ERA-11] | – |
| – | – | – | 7720 ± 1890 nM | 6170 ± 1470 nM | 10300 ± 2150 nM | O=C(O[C@@H]1CN[C@H](C(=O)O)C1)c1ccc(Oc2ccccc2)cc1 [ERA-16] | – |

The remaining lines, values behind:

| SMILES | Binding affinity Ki (rEAAT2) | Binding affinity Ki (hEAAT5) | Binding affinity Ki (rEAAT3) | Ki (rEAAT2) | Ki (hEAAT5) | Ki (rEAAT3) | Ki for hEAAT5 higher than for rASCT2 (hEAAT5; hEAAT5 versus rASCT2) |
| --- | --- | --- | --- | --- | --- | --- | --- |
| O=C(O[C@@H]1CN[C@H](C(=O)O)C1)c1ccccc1-c1ccccc1 [ERA-3] | No current | No current | No current | – | – | – | – |
| O=C(O[C@@H]1CN[C@H](C(=O)O)C1)c1ccc(-c2ccc(F)cc2)cc1 [ERA-4] | – | – | – | 1290 ± 310 nM | 2400 ± 720 nM | 690 ± 70 nM | – |
| O=C(O[C@@H]1CN[C@H](C(=O)O)C1)c1ccc(C(O)c2ccccc2)cc1 (some centres unmarked) [ERA-9] | No current; also recorded: No inhibitory activity was detected | No current; also recorded: No inhibitory activity was detected | No current; also recorded: No inhibitory activity was detected | – | – | – | – |
| N[C@@H](COC(=O)c1ccc(NC(=O)c2ccccc2)cc1)C(=O)O [ERA-21] | – | – | – | 11000 ± 1250 nM | 21300 ± 3150 nM | 12300 ± 1860 nM | – |
| N[C@@H](COC(=O)c1ccccc1)C(=O)O [ERA-25] | – | No current | – | 164000 ± 47000 nM | – | 656000 ± 115000 nM | – |
| N[C@@H](COC(=O)c1cccnc1)C(=O)O [ERA-28] | No current | No current | No current | – | – | – | – |
| O=C(O[C@@H]1CN[C@H](C(=O)O)C1)C(c1ccccc1)c1ccccc1 [ERA-29] | No current | No current | No current | – | – | – | – |
| O=C(O[C@@H]1CN[C@H](C(=O)O)C1)c1ccc(OCc2ccccc2)cc1 [ERA-31] | No current | No current | No current | – | – | – | – |
| O=C(O[C@H]1CN[C@H](C(=O)O)C1)c1ccc(C(=O)c2ccccc2)cc1 [ERA-35] | No current | No current | No current | – | – | – | – |
| O=C(O[C@@H]1CN[C@H](C(=O)O)C1)c1ccc(-c2ccccc2)cc1 [Lc-BPE, L-cis hydroxyproline biphenyl ester] | – | – | – | – | 2220 ± 460 nM | – | ~3 fold |
